Results published in US4778818A, “Substituted 2-(heteroaryl-2-propenyl)phenols useful as anti-inflammatory agents” (Merck & Co., Inc., priority 1987, dated 1988).

Experiments:
[1] = test system: inflammatory responses elicited by topically applied phorbol myristate acetate (PMA) or topically applied archidonic acid (AA) in mouse ear; settings: previously established, in words; cited from earlier work
[2] = test system: inflammatory responses elicited by topically applied phorbol myristate acetate (PMA) or topically applied archidonic acid (AA) in mouse ear; test: Topical mouse ear assay (TME); assay type: in vivo, mice
Method: The topical mouse ear assay (TME) was used to evaluate the novel compounds of the present invention for its effect on inflammatory responses elicited by topically applied phorbol myristate acetate (PMA) or topically applied archidonic acid (AA).
TABLE I Topical Mouse Ear Assay
Method: The right ears of mice (5 mice per group) were treated topically with either […] or 1000 μg AA alone or with the test compound in 25 μl of vehicle. The vehicle was water/pyridine/acetone (1:2:97). A control group of mice received the vehicle only. The mice were allowed food and water ad libitum during the treatment period; 2 hours for AA and 4 hours for PMA. The mice were sacrificed by cervical dislocation and a 6 mm diameter disc of tissue punched from both the treated and untreated ears. The tissue biopsies were immediately weighed and the weight increase of the treated ear relative to the weight of the untreated ear determined.
At the termination of the experiment, the amount of radioactivity in both the treated and untreated ear biopsies was determined and the increased amount of radioactivity in the treated tissue relative to the amount of radioactive in the untreated tissue determined.
As a measure of PMN infiltration, the amount of myeloperoxidase (MPO) activity in the same tissues was determined. The tissue biopsies were homogenized into 1 ml 0.5% hexadecyltrimethylammonium bromide and centrifuged for 45 min. at 1200×g. Aliquots 40 μl, of the supernatant phases were assayed for MPO activity by a colorimetric method devised by H. Dougherty for automated Titertek analysis. The MPO activity is expressed as the OD450 of the treated ear homogenate minus the OD450 of the non-treated ear homogenate.
All of the data are expressed as the mean±SEM, N=5 mice/group.

SMILES	activity in the topical mouse ear assay [1]	Edema (% inhibition) ([2]; dosage 5 μg)	Edema (% inhibition) ([2]; dosage 150 μg)	Edema (% inhibition) ([2]; dosage 50 μg)	Edema (% inhibition) ([2]; dosage 300 μg)
C[C@@H]1C[C@H]2[C@@H]3CCC4=CC(=O)C=C[C@]4(C)[C@@]3(F)[C@@H](O)C[C@]2(C)[C@@]1(O)C(=O)CO [Dexamethasone]	active	60%			
COc1ccc2c(c1)c(CC(=O)O)c(C)n2C(=O)c1ccc(Cl)cc1 [Indomethacin]	active		51%		
OCc1ccccc1/C=C/Cc1cc2c(cc1O)CCO2 [A, 5-hydroxy-6-(2-hydroxymethylcinnamyl)-2,3-dihydrobenzofuran]			54%	37%	88%
